From publication PMC6556873, “Rapid Covalent-Probe Discovery by Electrophile-Fragment Screening” (Journal of the American Chemical Society, 2019)
Like-named read-outs stand apart in the source and are kept apart here.

Legend:
BSA = molecular target: T1, BSA (Bos taurus, UniProt P02769); parameters: Intact protein LC/MS covalent labelling, fragments in pools of five, 200 uM each, 4 °C; details: 24 h, 4 °C, pool of five; 200 µM; covalent
T1 construct: gene ALB
Procedure: (§1) Incubations were performed at 200 μM for each compound and 2 μM of protein (10 μM for BSA) for 24 h at 4 °C with moderate shaking. Incubation buffers varied among proteins (PBS pH 7.4 for QSOX1 and BSA; 10 mM HEPES pH 7.5, 0.3 M NaCl, 0.5 mM TCEP for PCAF, UPS8, and NUDT7; […]; 10 mM Na2HPO4 pH 7.5 100 mM NaCl 5 mM β-mercaptoethanol for NV3CP; 20 mM Na phosphate pH 7.5 for NNMT; […]. The reaction was stopped by quenching with formic acid, 0.4% final concentration. Each protein was incubated with the electrophilic library in pools of five compounds per well. The pool’s composition maximized the difference in mass between fragments in the same well. Incubations were performed with each fragment at 200 μM, for 24 h at 4 °C, to allow the screening of proteins that are not stable for long time periods at higher temperatures. Following incubation, we used intact protein [compound left out] chromatography/mass spectrometry (LC/MS) to identify the fragments and quantify their labeling (Figure 3A). […] There was good agreement between the percent of labeling of NUDT7 by 100 random individual compounds and that obtained in pools of five (R^2=0.78; Figure S6 and Data set 2 in the Supporting Information).

NUDT7 = molecular target: T2, NUDT7 (Homo sapiens, UniProt P0C024); parameters: Intact protein LC/MS covalent labelling, fragments in pools of five, 200 uM each, 4 °C; details: 24 h, 4 °C, pool of five; 200 µM; covalent
T2 construct: residues 14-235, E. coli, pNIC28-Bsa4, N-terminal His6 tag removed by TEV, construct 26672 Da
Procedure: as §1

PCAF = molecular target: T3, PCAF (Homo sapiens, UniProt Q92831); parameters: Intact protein LC/MS covalent labelling, fragments in pools of five, 200 uM each, 4 °C; details: 24 h, 4 °C, pool of five; 200 µM; covalent
T3 construct: gene KAT2B
Procedure: as §1

in vitro [1] = assay: in vitro; parameters: species or system CCD841, HEK293; details: human, hb2 cells, read-out: HB-2 Cells Viability (%)
in vitro [2] = assay: in vitro; parameters: species or system HB2, HEK293; details: human, ccd841 cells
in vitro [3] = assay: in vitro; parameters: species or system HB2, CCD841; details: human, hek293 cells

T2 sequence (P0C024 14-235): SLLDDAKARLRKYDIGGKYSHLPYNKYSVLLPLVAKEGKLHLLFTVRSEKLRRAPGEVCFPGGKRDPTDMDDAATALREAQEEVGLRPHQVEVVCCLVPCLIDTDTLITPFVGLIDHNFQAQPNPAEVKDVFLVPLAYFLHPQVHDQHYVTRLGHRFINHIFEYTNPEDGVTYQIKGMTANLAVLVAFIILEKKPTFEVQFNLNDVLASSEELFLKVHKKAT
T1 sequence (P02769 whole entry, the tested form may be a part): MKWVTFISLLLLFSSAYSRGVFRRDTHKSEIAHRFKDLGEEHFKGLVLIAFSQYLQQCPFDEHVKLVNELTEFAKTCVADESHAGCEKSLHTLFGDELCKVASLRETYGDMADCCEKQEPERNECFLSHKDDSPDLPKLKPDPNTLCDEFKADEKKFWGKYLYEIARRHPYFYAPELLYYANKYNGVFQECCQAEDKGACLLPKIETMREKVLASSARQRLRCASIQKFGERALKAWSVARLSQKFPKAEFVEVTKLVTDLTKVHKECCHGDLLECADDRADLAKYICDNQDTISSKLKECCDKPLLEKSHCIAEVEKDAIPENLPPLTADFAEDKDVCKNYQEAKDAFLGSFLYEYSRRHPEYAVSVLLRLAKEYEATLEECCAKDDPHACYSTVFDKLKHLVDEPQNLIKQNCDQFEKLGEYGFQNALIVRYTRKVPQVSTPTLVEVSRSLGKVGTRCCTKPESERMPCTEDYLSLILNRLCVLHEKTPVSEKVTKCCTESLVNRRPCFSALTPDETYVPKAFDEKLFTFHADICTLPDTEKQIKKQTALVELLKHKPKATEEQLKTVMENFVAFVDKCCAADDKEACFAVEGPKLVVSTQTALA
T3 sequence (Q92831 whole entry, the tested form may be a part): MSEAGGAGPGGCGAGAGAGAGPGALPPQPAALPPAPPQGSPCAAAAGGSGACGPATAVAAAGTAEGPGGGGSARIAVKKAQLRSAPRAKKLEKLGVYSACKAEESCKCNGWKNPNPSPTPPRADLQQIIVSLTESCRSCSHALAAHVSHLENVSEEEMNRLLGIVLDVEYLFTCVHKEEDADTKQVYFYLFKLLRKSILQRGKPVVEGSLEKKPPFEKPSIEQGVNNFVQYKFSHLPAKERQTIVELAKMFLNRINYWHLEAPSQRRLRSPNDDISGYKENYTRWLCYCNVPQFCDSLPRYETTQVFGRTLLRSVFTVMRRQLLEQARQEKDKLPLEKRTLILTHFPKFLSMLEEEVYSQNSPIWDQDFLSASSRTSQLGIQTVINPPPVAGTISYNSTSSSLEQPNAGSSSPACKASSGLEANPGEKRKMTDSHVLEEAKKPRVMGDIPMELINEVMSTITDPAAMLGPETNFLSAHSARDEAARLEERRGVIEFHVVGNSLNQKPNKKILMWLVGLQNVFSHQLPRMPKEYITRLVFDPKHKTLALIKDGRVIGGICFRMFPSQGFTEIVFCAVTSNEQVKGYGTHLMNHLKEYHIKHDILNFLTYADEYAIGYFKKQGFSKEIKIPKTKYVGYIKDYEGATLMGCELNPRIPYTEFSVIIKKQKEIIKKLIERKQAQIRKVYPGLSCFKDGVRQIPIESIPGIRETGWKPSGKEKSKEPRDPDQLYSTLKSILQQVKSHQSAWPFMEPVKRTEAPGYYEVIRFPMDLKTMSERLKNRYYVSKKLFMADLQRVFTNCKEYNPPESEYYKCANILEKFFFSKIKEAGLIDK

| SMILES | BSA (BSA) | NUDT7 (NUDT7) | PCAF (PCAF) | viability at 48 h, 10 µM (in vitro [1]) [%] | viability at 48 h, 10 µM (in vitro [2]) [%] | viability at 48 h, 10 µM (in vitro [3]) [%] |
| --- | --- | --- | --- | --- | --- | --- |
| CC(=O)c1sc2nc(C)cc(C)c2c1NC(=O)CCl [PCM-0102108] | 0 | 0 | 0 | 103 | 99 | 101 |
| COc1ccc(C(=O)NNC(=O)CCl)cc1 [PCM-0102115] | 0 | 0.11 | 0 | 91.7 | 81.5 | 79.4 |
| O=C(CCl)Nc1ccc2[nH]c(C(F)(F)F)nc2c1 [PCM-0102151] | 0 | 0.07 | 0 | 7.4 | 28 | 1.3 |
| Cc1cccc([N+](=O)[O-])c1NC(=O)CCl [PCM-0102176] | 0 | 0.22 | 0 | 85.3 | 71.7 | 77.5 |
| CN(Cc1c(F)cccc1Cl)C(=O)CCl [PCM-0102184] | 0 |  | 0 | 9.3 | 42.2 | 4.9 |
| O=C(CCl)Nc1ccc(N2CCCCCC2)cc1 [PCM-0102199] | 0 | 0.08 | 0 | 7 | 31.8 | 4 |
| Cc1cccc(N2CCN(C(=O)CCl)CC2)c1C [PCM-0102215] | 0 | 0.29 | 0 | 7.5 | 43.8 | 11.1 |
| N#Cc1cnn(-c2ccccc2)c1NC(=O)CCl [PCM-0102225] | 0 | 0.16 | 0 | 99 | 81 | 91 |
| O=C(CCl)Nc1c(Cl)cccc1Cl [PCM-0102234] | 0 | 0.64 | 0.45 | 96.3 | 77.5 | 101 |
| CC1CCN(c2ccc(NC(=O)CCl)cc2)CC1.Cl [PCM-0102235] | 0 | 0 | 0 | 21.9 | 48.3 | 18.9 |
| COc1ccc(NC(=O)NC(=O)CCl)cc1 [PCM-0102268] | 0 | 0 | 0 | 63.7 | 70.4 | 65 |
| Cc1cc(N2CCCC2)ccc1NC(=O)CCl [PCM-0102301] | 0 | 0.24 | 0 | 47.9 | 78.6 | 40.7 |
| O=C(CCl)NNc1ccccn1 [PCM-0102319] | 0 | 0 | 0 | 106 | 106 | 94.6 |
| O=C(CCl)Nc1ccc2c(c1)OCCO2 [PCM-0102324] | 0 |  | 0 | 35.2 | 63.3 | 8.2 |
| Cc1cc(NC(=O)CCl)n(C)n1 [PCM-0102383] | 0 | 0 | 0 | 64.5 | 54.4 | 31.2 |
| O=C(CCl)N1CCc2cc([N+](=O)[O-])ccc21 [PCM-0102403] | 0 | 0 | 0 | 21.2 | 51.4 | 50.4 |
| Cc1ccc(NC(=O)CCl)c(Cl)c1 [PCM-0102408] | 0 | 0.18 | 0 | 35.9 | 78.1 | 38.1 |
| CC1CCCCN1C(=O)CCl (stereo not shown) [PCM-0102434] | 0 | 0 | 0 | 89.1 | 82.7 | 71.3 |
